{"source": "patent US20170143712A1", "about": "“Methods of Treating Cancers, Immune and Autoimmune Diseases, and Inflammatory Diseases Based on BTK Occupancy and BTK Resynthesis Rate” (Acerta Pharma B.V., priority 2014, published 2017)", "key": {"S6 phosphorylation": {"tested_on": "S6 phosphorylation", "assay": "Basal and anti-IgM induced S6 phosphorylation in splenocytes after oral dosing of mice", "format": "in vivo, mouse", "conditions": "single oral 25 mg/kg; rank order Formula (II)>ibrutinib>Formula (XVII)", "protocol": "B cell stimulation through the B cell receptor (BCR) with antibodies (e.g., anti-IgM) results in the activation of BTK and subsequent cellular changes, including the upregulation of various cell surface receptors. Measuring the inhibition of BCR induced protein phosphorylation downstream of Btk, and the inhibition of surface receptor upregulation provides a way to assess the Btk inhibitor activity. In the first study, the BTK target occupancy in splenocytes was measured over time, providing evidence for BTK resynthesis in the tissue compartment of interest.\nMice were sacrificed at 3, 6, 12, 18, and 24 hours after treatment with the BTK inhibitors (FIG. 27A, FIG. 27B, and FIG. 27C). Spleens were harvested and splenocyte preparations were made for flow cytometry analysis of B cell functions. Fresh or cryopreserved splenocytes were cultured with a-IgM to stimulate BCR, and the up-regulation of CD69, an early functional marker of B cell activation, was analyzed by flow cytometry.\nA downstream marker of BTK activity, S6 phosphorylation, was also monitored in this study. […] In a second study, the effects of another inhibitor of BTK that covalently inactivates the kinase, Formula (XXI), were compared with Formula (II) to evaluate the return of BCR function and B cell activation, as illustrated in FIG. 29A and FIG. 29B."}, "[1]": {"tested_on": "BCR signaling through BTK", "assay": "Anti-IgM induced CD86 and CD69 on splenocyte B cells of CIA mice", "format": "in vivo, mouse", "conditions": "splenocytes 3 hr after last dosing on day 14", "protocol": "(§1) FIG. 45 illustrates changes in a functional measure of BCR signalling through the CD86 marker. Mouse splenocytes were isolated from spleens from mice that were part of the mouse CIA study semi-therapeutic protocol, 3 hr after the last dosing on day 14 of the treatment and cryopreserved. After thawing, inhibition of anti-IgM-induced PD markers CD86 and CD69 on mouse splenocyte B cells were measured. Error bars represent the standard deviation for the 3 sets of splenocytes analyzed.\nas §1, with “FIG. 46” for “FIG. 45”, “the CD69” for “the CD86”\nInhibition of the BCR signaling through BTK was evaluated by ex vivo stimulation of splenocytes using IgM and evaluation of CD86 and CD69 as functional responses of BCR stimulation."}, "BTK": {"target": "BTK (Homo sapiens, UniProt Q06187)", "sequence (Q06187 whole entry)": "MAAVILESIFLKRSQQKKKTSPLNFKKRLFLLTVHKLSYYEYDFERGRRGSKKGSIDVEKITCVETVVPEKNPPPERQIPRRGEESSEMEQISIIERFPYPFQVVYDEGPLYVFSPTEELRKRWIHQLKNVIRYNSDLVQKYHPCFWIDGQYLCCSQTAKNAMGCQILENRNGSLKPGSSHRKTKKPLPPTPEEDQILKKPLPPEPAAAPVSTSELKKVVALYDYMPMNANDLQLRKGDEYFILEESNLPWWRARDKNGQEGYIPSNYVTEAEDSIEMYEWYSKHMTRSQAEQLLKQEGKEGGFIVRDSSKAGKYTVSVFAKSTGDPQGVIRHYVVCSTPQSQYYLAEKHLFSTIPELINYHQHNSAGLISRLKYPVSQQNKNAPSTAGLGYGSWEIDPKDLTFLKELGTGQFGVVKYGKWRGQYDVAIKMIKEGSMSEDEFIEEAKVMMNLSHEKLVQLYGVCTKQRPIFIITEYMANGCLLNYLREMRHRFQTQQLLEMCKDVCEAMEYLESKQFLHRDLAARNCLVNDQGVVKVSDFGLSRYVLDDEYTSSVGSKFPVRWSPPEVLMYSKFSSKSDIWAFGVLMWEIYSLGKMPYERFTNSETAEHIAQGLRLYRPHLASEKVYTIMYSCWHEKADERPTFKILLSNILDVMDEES", "assay": "PK/PD model fit and simulation of BTK occupancy and pBTK inhibition", "conditions": "for BTK resynthesis rate (modeled estimate): 15 mg QD"}, "[2]": {"tested_on": "established type II collagen-induced arthritis (CIA) in DBA/1 mice", "assay": "Mouse established CIA, dosing from arthritis day 8, QD or BID (Example 11)", "format": "in vivo", "conditions": "for AUC (All Paws) - Corrected for Initial Score / Change in Body Weight (g) Days 1-19 / Histopathology Summed Score Knees / Histopathology Summed Score Paws / Histopathology Summed Score Six-Joints / Paw Score AUC (All Paws): mean(SE)", "excerpt": "A study was designed to determine the efficacy of a covalently acting BTK inhibitor, Formula (II) in inhibiting acute inflammation, pannus formation, cartilage destruction, and bone resorption associated with established type II collagen-induced arthritis (CIA) in DBA/1 mice. Immunization with heterologous type II collagen (CII) induces arthritis in mice of the DBA/1 strain, which is genetically susceptible to this disease. To develop an experimental model of autoimmunity more adequate for the study of human rheumatoid arthritis (RA), male DBA/1 mice were injected intradermally (ID) with bovine type II collagen to induce arthritis as reported by Trentham et al (Trentham D E, Townes A S, Kang A H Autoimmunity to type II collagen: an experimental model of arthritis. J. Exper. Med. 1977, 146:857-868) and Bendele A (Bendele A, Animal models of rheumatoid arthritis. J. Musculoskelet. Neuronal Interact. 2001, 1(4):377-85).\nFollowing acclimatization, 6-7 week old male DBA/1 mice (n=10/group for arthritis) were immunized at the base of the tail, with 150 μL of Freund's Complete Adjuvant (Difco, Detroit, Mich.) containing 1 mg/mL bovine type II collagen by intradermal injection. Immunizations were performed day 0 and again on day 21. On study days 25-26, on day 8 following onset of arthritis, the mice were randomized into treatment groups. […] Dosing began on arthritis day 8 by oral gavage. Groups were treated with vehicle (0.4% HPMC, 0.2% Tween 80), Formula (II) at 25 mg/kg QD, Formula (II) at 12.5 mg/kg BID, or the reference compound dexamethasone (Dex) at 0.2 mg/kg QD. These animals were fasted overnight on arthritis day 20 (13 days after enrollment) prior to necropsy on arthritis day 21. Clinical scores were given for each of the paws (right front, left front, right rear, left rear) on arthritis days 1-21.\nEfficacy evaluation was based on animal body weights, clinical arthritis scores, arthritis scores expressed as area under the curve (AUC), and histopathology on fore paws, hind paws, and knees. Histopathology results were expressed as 4 paws, knees only, or 6 joints (knees included). Day 19 was used as the endpoint for analysis of body weight change since the male DBA/1 mice were fasted overnight prior to necropsy on day 21.\nNecropsies were conducted on fasted mice and terminal serum, fore paws, hind paws, and knees were collected into 10% neutral buffered formalin (NBF) for microscopy. Spleens were harvested and weighed."}}}
{"smiles": "CC#CC(=O)N1CCC[C@H]1c1nc(-c2ccc(C(=O)Nc3ccccn3)cc2)c2c(N)nccn12", "note": "[Formula (II), (S)-4-(8-amino-3-(1-(but-2-ynoyl)pyrrolidin-2-yl)imidazo[1,5-a]pyrazin-1-yl)-N-(pyridin-2-yl)benzamide]", "values": [{"measurement": "basal state and anti-IgM induced S6 phosphorylation", "setting": "S6 phosphorylation", "value": "inhibited both basal state and anti-IgM induced S6 phosphorylation"}, {"measurement": "BCR-mediated signaling (anti-IgM induced CD86 and CD69)", "setting": "[1]", "value": "dose-responsive decreases in BCR-mediated signaling"}, {"measurement": "k4,1 (model rate constant)", "setting": "BTK; 15 mg QD model fit", "value": 0.91}, {"measurement": "BTK resynthesis rate (modeled estimate)", "setting": "BTK; after the first 48 hours", "value": 0.04}, {"measurement": "BTK resynthesis rate (modeled estimate)", "setting": "BTK; first 48 hours", "value": 0.1}, {"measurement": "Clinical arthritis score AUC (d8-d21), reduction vs vehicle controls", "setting": "[2]; 12.5 mg/kg BID", "value": 59, "unit": "%"}, {"measurement": "absolute spleen weights, reduction vs vehicle controls", "setting": "[2]; 12.5 mg/kg BID", "value": 64, "unit": "%"}, {"measurement": "knee bone resorption, reduction vs vehicle controls", "setting": "[2]; 12.5 mg/kg BID", "value": 78, "unit": "%"}, {"measurement": "knee inflammation, reduction vs vehicle controls", "setting": "[2]; 12.5 mg/kg BID", "value": 49, "unit": "%"}, {"measurement": "knee pannus formation, reduction vs vehicle controls", "setting": "[2]; 12.5 mg/kg BID", "value": 80, "unit": "%"}, {"measurement": "six joint histopathology, reduction of summed scores", "setting": "[2]; 12.5 mg/kg BID", "value": 53, "unit": "%"}, {"measurement": "summed knee scores, reduction vs vehicle controls", "setting": "[2]; 12.5 mg/kg BID", "value": 45, "unit": "%"}, {"measurement": "arthritis scores measured daily vs vehicle controls", "setting": "[2]; 12.5 mg/kg BID, p<0.05 on days 9-21", "value": "significantly reduced toward normal"}, {"measurement": "AUC (All Paws) - Corrected for Initial Score", "setting": "[2]; 12.5 mg/kg PO BID", "value": "*−23.05(2.58)"}, {"measurement": "Change in Body Weight (g) Days 1-19", "setting": "[2]; 12.5 mg/kg PO BID", "value": "†0.64(0.69) g"}, {"measurement": "Histopathology Summed Score Knees", "setting": "[2]; 12.5 mg/kg PO BID", "value": "*6.73(0.60)"}, {"measurement": "Histopathology Summed Score Paws", "setting": "[2]; 12.5 mg/kg PO BID", "value": "*7.49(1.03)"}, {"measurement": "Histopathology Summed Score Six-Joints", "setting": "[2]; 12.5 mg/kg PO BID", "value": "*7.23(0.77)"}, {"measurement": "Paw Score AUC (All Paws)", "setting": "[2]; 12.5 mg/kg PO BID", "value": "*22.45(2.68)"}, {"measurement": "AUC (All Paws) - Corrected for Initial Score", "setting": "[2]; 25 mg/kg PO QD", "value": "*−24.48(3.85)"}, {"measurement": "Change in Body Weight (g) Days 1-19", "setting": "[2]; 25 mg/kg PO QD", "value": "2.37(0.28) g"}, {"measurement": "Histopathology Summed Score Knees", "setting": "[2]; 25 mg/kg PO QD", "value": "*6.00(0.76)"}, {"measurement": "Histopathology Summed Score Paws", "setting": "[2]; 25 mg/kg PO QD", "value": "*7.11(0.98)"}, {"measurement": "Histopathology Summed Score Six-Joints", "setting": "[2]; 25 mg/kg PO QD", "value": "*6.74(0.80)"}, {"measurement": "Paw Score AUC (All Paws)", "setting": "[2]; 25 mg/kg PO QD", "value": "*23.63(3.37)"}, {"measurement": "Clinical arthritis score AUC (d8-d21), reduction vs vehicle controls", "setting": "[2]; 25 mg/kg QD", "value": 56, "unit": "%"}, {"measurement": "knee bone resorption, reduction vs vehicle controls", "setting": "[2]; 25 mg/kg QD", "value": 82, "unit": "%"}, {"measurement": "knee cartilage damage, reduction vs vehicle controls", "setting": "[2]; 25 mg/kg QD", "value": 28, "unit": "%"}, {"measurement": "knee inflammation, reduction vs vehicle controls", "setting": "[2]; 25 mg/kg QD", "value": 53, "unit": "%"}, {"measurement": "knee pannus formation, reduction vs vehicle controls", "setting": "[2]; 25 mg/kg QD", "value": 82, "unit": "%"}, {"measurement": "six joint histopathology, reduction of summed scores", "setting": "[2]; 25 mg/kg QD", "value": 56, "unit": "%"}, {"measurement": "summed knee scores, reduction vs vehicle controls", "setting": "[2]; 25 mg/kg QD", "value": 51, "unit": "%"}, {"measurement": "tolerability", "setting": "[2]; 25 mg/kg QD or 12.5 mg/kg BID, DBA/1 mice", "value": "well tolerated"}, {"measurement": "arthritis scores measured daily vs vehicle controls", "setting": "[2]; 25 mg/kg QD, p<0.05 on days 11-21", "value": "significantly reduced toward normal"}]}
